{"source": "patent US10543216B2", "about": "“Modus of administration of iron, and new formulations adapted for the said goal” (BIOFER S.P.A., priority 2013, dated 2020)", "test_system": "Pig esophageal epithelium", "test": "in vitro permeation in the Franz cell (model of sublingual absorption)", "settings": "Franz cell, pig esophageal epithelium, 37° C.", "protocol": "Sublingual absorption of Fe++ compounds was evaluated by means of in vitro permeation experiments using the Franz cell exemplified in FIG. 1. Pig esophageal epithelium was used as membrane. This experimental model is recognized as valid and reliable in the assessment of sublingual absorption of drugs [I. Diaz Del Consuelo, G. P. Pizzolato, F. Falsom, R. H. Guy, and Y. Jacques.: Evaluation of pig esophageal mucosa as a permeability barrier model for buccosal tissue. J. Pharm. […] Arch. […] Membrane preparation occurred by following the method described here. The esophagi were taken from the animals within one hour after sacrifice. The mucosa was separated from the muscle tissue with a lancet. To separate the epithelium, the mucosa was immersed in distilled water at 60° C. for 2 minutes and then the epithelium was removed from the underlying tissue with the aid of a spatula. The tissues thus prepared were stored at −20° C. until the time of use, when they were thawed to room temperature before being mounted on the vertical diffusion cells of the Franz type, a schematic view of which is shown in FIG. 1. The esophageal epithelium was placed on a regenerated cellulose filter (pore diameter 0.45 μm) with the luminal side facing up, and mounted between the donor and receptor compartments of the Franz cells. […] The exposed surface was 0.6 cm^2. The receptor compartment was filled with approximately 4 ml of physiological solution (0.9% NaCl w/v) and kept under constant magnetic agitation for the entire duration of the experiment. The entire system was thermostat-controlled at 37° C. Sampling of the receptor compartment was performed by drawing 200 μl of receptor solution, which were replaced immediately with an equal volume of fresh physiological solution. The samples were taken at preset time intervals, specifically at 0, 1, 2, 3, 4, 5 and 6 hours.\n4 g of powder were suspended in 10 ml of physiological solution and left under agitation for 15 minutes, then the solution was filtered with regenerated cellulose filters (pore diameter 0.45 μm).\n6 g of powder were suspended in 10 ml of physiological solution. The suspension was left under magnetic agitation for 25 minutes and then filtered with regenerated cellulose filters (pore diameter 0.45 μm).\n7 g of powder were suspended in 6 ml of physiological solution. The suspension was left under magnetic agitation for 1 hour; at the end it was filtered with regenerated cellulose filters (pore diameter 0.45 μm).\nAn excess of ascorbic acid (2 g) was added to the solution. The suspension was left under magnetic agitation for 30 minutes and after filtration through regenerated cellulose filters (pore diameter 0.45 μm) was used as it was.\n4 g of powder were suspended in 10 ml of physiological solution. The suspension was left under magnetic agitation for 15 hours, at the end of which it was filtered with regenerated cellulose filters (pore diameter 0.45 μm).\nAn excess of powder was suspended in 10 ml of physiological solution. The suspension was left under magnetic agitation for 15 hours, at the end of which it was filtered with regenerated cellulose filters (pore diameter 0.45 μm)."}
{"substance": "ferric citrate", "values": [{"measurement": "permeation / absorption through the epithelium (in words)", "value": "appreciable only at very low pH values"}]}
